According to US20250179066A1, “ZWITTERIONIC ANTIBACTERIAL COMPOUNDS” (Hoffmann-La Roche Inc., priority 2022, published 2025):
Read-outs that look alike come from different tables or passages of the source.

Tested on: Acinetobacter baumannii ATCC17961
Assay: Antimicrobial susceptibility testing: 90% growth inhibitory concentration (IC90) determination
Type: cell-based
Details: 90% growth inhibitory concentration against Acinetobacter baumannii ATCC17961, Iso-Sensitest broth, OD 600 nm over 16 h, read-out: ATCC 17961 IC90
Procedure: The in vitro antimicrobial activity of the compounds was determined according to the following procedure: The assay used a 10-points Iso-Sensitest broth medium to measure quantitatively the in vitro activity of the compounds against Acinetobacter baumannii ATCC17961. Stock compounds in DMSO were serially twofold diluted (e.g. range from 10 to 0.0195 μM final concentration) in 384 wells microtiter plates and inoculated with 49 μL the bacterial suspension in Iso-Sensitest medium to have a final cell concentration of ˜5×10^(5) CFU/mL in a final volume/well of 50 μL/well. Microtiter plates were incubated at 35±2° C. Bacterial cell growth was determined with the measurement of optical density at λ=600 nm each min over a time course of 16 h. Growth inhibition was calculated during the logarithmic growth of the bacterial cells with determination of the concentration inhibiting 50% (IC50) and 90% (IC90) of the growth. Table 1 provides the 90% growth inhibitory concentrations (IC90) in micromoles per liter of the compounds of present invention obtained against the strain Acinetobacter baumannii ATCC17961.

[1] = Acinetobacter baumannii, ATCC17961, 16 h

IC90 [1] [nM]	IC90 [nM]	SMILES
330	–	Cn1c(-c2cn(-c3ccc(CCN)cn3)nc2C(F)(F)F)cnc1C(=O)Nc1ccc(C(=O)N2CCN(C(=O)C3CC[N+](CC(=O)O)(CC4CNC4)CC3)CC2)c(Cl)c1 (stereo not drawn) [Example 1, 2-[4-[4-[4-[[5-[1-[5-(2-Aminoethyl)-2-pyridyl]-3-(trifluoromethyl)pyrazol-4-yl]-1-methyl-imidazole-2-carbonyl]amino]-2-chloro-benzoyl]piperazine-1-carbonyl]-1-(azetidin-3-ylmethyl)piperidin-1-ium-1-yl]acetic Acid.1:1 2,2,2-trifluoroacetic Acid.1:1 2,2,2-trifluoroacetate]
330	–	Cn1c(-c2cn(-c3ccc(OCCN)cn3)nc2C(F)(F)F)cnc1C(=O)Nc1ccc(C(=O)N2CCN(C(=O)C3CC[N+](CC(=O)O)(CC4CNC4)CC3)CC2)c(Cl)c1 (stereo not drawn) [Example 2, 2-[4-[4-[4-[[5-[1-[5-(2-aminoethoxy)-2-pyridyl]-3-(trifluoromethyl)pyrazol-4-yl]-1-methyl-imidazole-2-carbonyl]amino]-2-chloro-benzoyl]piperazine-1-carbonyl]-1-(azetidin-3-ylmethyl)piperidin-1-ium-1-yl]acetic acid. 1:1 2,2,2-trifluoroacetic acid. 1:1 2,2,2-trifluoroacetate]
390	–	Cn1c(-c2cn(-c3ccc(N4CCNCC4)cn3)nc2C(F)(F)F)cnc1C(=O)Nc1ccc(C(=O)N2CCN(C(=O)C3CC[N+](CC(=O)O)(CC4CNC4)CC3)CC2)c(Cl)c1 (stereo not drawn) [Example 3, 2-[1-(azetidin-3-ylmethyl)-4-[4-[2-chloro-4-[[1-methyl-5-[1-(5-piperazino-2-pyridyl)-3-(trifluoromethyl)pyrazol-4-yl]imidazole-2-carbonyl]amino]benzoyl]piperazine-1-carbonyl]piperidin-1-ium-1-yl]acetic acid. 1:1 2,2,2-trifluoroacetic acid. 1:1 2,2,2-trifluoroacetate]
590	–	Cn1c(-c2cn(-c3ccc(NCC4CCNCC4)cn3)nc2C(F)(F)F)cnc1C(=O)Nc1ccc(C(=O)N2CCN(C(=O)C3CC[N+](CC(=O)O)(CC4CNC4)CC3)CC2)c(Cl)c1 (stereo not drawn) [Example 5, 2-[1-(azetidin-3-ylmethyl)-4-[4-[2-chloro-4-[[1-methyl-5-[1-[5-(4-piperidylmethylamino)-2-pyridyl]-3-(trifluoromethyl)pyrazol-4-yl]imidazole-2-carbonyl]amino]benzoyl]piperazine-1-carbonyl]piperidin-1-ium-1-yl]acetic acid. 1:1 2,2,2-trifluoroacetate]
1480	–	Cn1c(-c2cn(-c3ccc(N)nc3)nc2C(F)(F)F)cnc1C(=O)Nc1ccc(C(=O)N2CCN(C(=O)C3CC[N+](CC(=O)O)(CC4CNC4)CC3)CC2)c(Cl)c1 (stereo not drawn) [Example 7, 2-[4-[4-[4-[[5-[1-(6-amino-3-pyridyl)-3-(trifluoromethyl)pyrazol-4-yl]-1-methyl-imidazole-2-carbonyl]amino]-2-chloro-benzoyl]piperazine-1-carbonyl]-1-(azetidin-3-ylmethyl)piperidin-1-ium-1-yl]acetic acid. 1:1 2,2,2-trifluoroacetate]
–	170	Cn1c(-c2cn(-c3ccc(NCCN)cn3)nc2C(F)(F)F)cnc1C(=O)Nc1ccc(C(=O)N2CCN(C(=O)[C@H]3CC[N@+](CC(=O)O)(CC4CNC4)CC3)CC2)c(Cl)c1 [Example 10, cis-2-[4-[4-[4-[[5-[1-[5-(2-Aminoethylamino)-2-pyridyl]-3-(trifluoromethyl)pyrazol-4-yl]-1-methyl-imidazole-2-carbonyl]amino]-2-chloro-benzoyl]piperazine-1-carbonyl]-1-(azetidin-3-ylmethyl)piperidin-1-ium-1-yl]acetic Acid.1:1 2,2,2-trifluoroacetic Acid.1:1 2,2,2-trifluoroacetate]
180	–	Cn1c(-c2cn(-c3ccc(NCCN)cn3)nc2C(F)(F)F)cnc1C(=O)Nc1ccc(C(=O)N2CCN(C(=O)C3CC[N+](CC(=O)O)(CC4CNC4)CC3)CC2)c(Cl)c1 (stereo not drawn) [Example 12, 2-[4-[4-[4-[[5-[1-[5-(2-aminoethylamino)-2-pyridyl]-3-(trifluoromethyl)pyrazol-4-yl]-1-methyl-imidazole-2-carbonyl]amino]-2-chloro-benzoyl]piperazine-1-carbonyl]-1-(azetidin-3-ylmethyl)piperidin-1-ium-1-yl]acetic acid. 1:1 2,2,2-trifluoroacetic acid. 1:1 2,2,2-trifluoroacetate]

The remaining lines, values behind:

SMILES	IC90 [1] [nM]	IC90 [nM]
Cn1c(-c2cn(-c3ccc(N)cn3)nc2C(F)(F)F)cnc1C(=O)Nc1ccc(C(=O)N2CCN(C(=O)CCC[N+](C)(CCCN)CC(=O)O)CC2)c(Cl)c1 (racemic) [Example 65, rac-3-aminopropyl-[4-[4-[4-[[5-[1-(5-amino-2-pyridyl)-3-(trifluoromethyl)pyrazol-4-yl]-1-methyl-imidazole-2-carbonyl]amino]-2-chloro-benzoyl]piperazino]-4-keto-butyl]-(carboxymethyl)-methyl-ammonium. 1:1 2,2,2-trifluoroacetate]	720	–
CNCCNc1ccc(-n2cc(-c3cnc(C(=O)Nc4ccc(C(=O)N5CCN(C(=O)C6CC[N+](CC(=O)O)(CC7CNC7)CC6)CC5)c(Cl)c4)n3C)c(C(F)(F)F)n2)nc1 (stereo not drawn) [Example 4, 2-[1-(azetidin-3-ylmethyl)-4-[4-[2-chloro-4-[[1-methyl-5-[1-[5-[2-(methylamino)ethylamino]-2-pyridyl]-3-(trifluoromethyl)pyrazol-4-yl]imidazole-2-carbonyl]amino]benzoyl]piperazine-1-carbonyl]piperidin-1-ium-1-yl]acetic acid. 1:1 2,2,2-trifluoroacetate]	390	–
Cn1c(-c2cn(-c3ccc(NCC4CC4(F)F)cn3)nc2C(F)(F)F)cnc1C(=O)Nc1ccc(C(=O)N2CCN(C(=O)C3CC[N+](CC(=O)O)(CC4CNC4)CC3)CC2)c(Cl)c1 (stereo not drawn) [Example 6, 2-[1-(azetidin-3-ylmethyl)-4-[4-[2-chloro-4-[[5-[1-[5-[(2,2-difluorocyclopropyl)methylamino]-2-pyridyl]-3-(trifluoromethyl)pyrazol-4-yl]-1-methyl-imidazole-2-carbonyl]amino]benzoyl]piperazine-1-carbonyl]piperidin-1-ium-1-yl]acetic acid. 1:1 2,2,2-trifluoroacetate]	690	–
Cn1c(-c2cn(-c3ccc(NCCN)nc3)nc2C(F)(F)F)cnc1C(=O)Nc1ccc(C(=O)N2CCN(C(=O)C3CC[N+](CC(=O)O)(CC4CNC4)CC3)CC2)c(Cl)c1 (stereo not drawn) [Example 8, 2-[4-[4-[4-[[5-[1-[6-(2-aminoethylamino)-3-pyridyl]-3-(trifluoromethyl)pyrazol-4-yl]-1-methyl-imidazole-2-carbonyl]amino]-2-chloro-benzoyl]piperazine-1-carbonyl]-1-(azetidin-3-ylmethyl)piperidin-1-ium-1-yl]acetic acid. 1:1 2,2,2-trifluoroacetate]	1550	–
Cn1c(-c2cn(-c3ccc4[nH]ccc4n3)nc2C(F)(F)F)cnc1C(=O)Nc1ccc(C(=O)N2CCN(C(=O)CCC[N+](CCCCN)(CCCCN)CC(=O)O)CC2)c(Cl)c1 [Example 9, Bis(4-aminobutyl)-(carboxymethyl)-[4-[4-[2-chloro-4-[[1-methyl-5-[1-(1H-pyrrolo[3,2-b]pyridin-5-yl)-3-(trifluoromethyl)pyrazol-4-yl]imidazole-2-carbonyl]amino]benzoyl]piperazino]-4-keto-butyl]ammonium.1:1 2,2,2-trifluoroacetic Acid. 1:1 2,2,2-trifluoroacetate]	100	–
Cn1c(-c2cn(-c3ccc(N)cc3F)nc2C(F)(F)F)cnc1C(=O)Nc1ccc(C(=O)N2CCN(C(=O)CCC[N+](CCCCN)(CCCCN)CC(=O)O)CC2)c(Cl)c1 [Example 11, bis(4-aminobutyl)-[4-[4-[4-[[5-[1-(4-amino-2-fluoro-phenyl)-3-(trifluoromethyl)pyrazol-4-yl]-1-methyl-imidazole-2-carbonyl]amino]-2-chloro-benzoyl]piperazino]-4-keto-butyl]-(carboxymethyl)ammonium. 1:1 2,2,2-trifluoroacetic acid. 1:1 2,2,2-trifluoroacetate]	170	–
Cn1c(-c2cn(-c3ccc4[nH]ccc4n3)nc2C(F)(F)F)cnc1C(=O)Nc1ccc(C(=O)N2CCN(C(=O)CCC[N+](CCCN)(CCCN)CC(=O)O)CC2)c(Cl)c1 [Example 13, bis(3-aminopropyl)-(carboxymethyl)-[4-[4-[2-chloro-4-[[1-methyl-5-[1-(1H-pyrrolo[3,2-b]pyridin-5-yl)-3-(trifluoromethyl)pyrazol-4-yl]imidazole-2-carbonyl]amino]benzoyl]piperazino]-4-keto-butyl]ammonium. 1:1 2,2,2-trifluoroacetic acid. 1:1 2,2,2-trifluoroacetate]	200	–
Cn1c(-c2cn(-c3cc4[nH]ccc4cn3)nc2C(F)(F)F)cnc1C(=O)Nc1ccc(C(=O)N2CCN(C(=O)[C@H]3CC[N@+](CC(=O)O)(CC4CNC4)CC3)CC2)c(Cl)c1 [Example 14, cis-2-[1-(azetidin-3-ylmethyl)-4-[4-[2-chloro-4-[[1-methyl-5-[1-(1H-pyrrolo[3,2-c]pyridin-6-yl)-3-(trifluoromethyl)pyrazol-4-yl]imidazole-2-carbonyl]amino]benzoyl]piperazine-1-carbonyl]piperidin-1-ium-1-yl]acetic acid. 1:1 2,2,2-trifluoroacetate]	200	–
